# Measurements reported in patent publication US9060515B2, “Heterocyclic urea compounds” (BIOTA EUROPE LTD, priority 2011, dated 2015).
# System: S. pyogenes (ATCC 51339)
# Experiment: Antibacterial susceptibility testing (MIC, broth microdilution or agar dilution), S. pyogenes
# Assay type: cell-based
# Details: Streptococcus pyogenes, ATCC51339; read-out: S. pyogenes (ATCC 51339) minimal inhibitory concentration (MIC)
# Protocol: (§1) Compounds of the invention were tested for antimicrobial activity by susceptibility testing in liquid or on solid media. MICs for compounds against each strain were determined by the broth microdilution or agar dilution method according to the guidelines of the Clinical Laboratories and Standards Institute, formerly the National Committee for Clinical Laboratory Standards (Clinical Laboratories and Standards Institute. Methods for Dilution Antimicrobial Susceptibility Tests for Bacteria That Grow Aerobically; Approved Standard—Seventh Edition. Document M7-A7. CLSI, Wayne, Pa., 2006; Clinical Laboratories and Standards Institute. The Gram positive bacterial strains tested include S. aureus (Staphylococcus aureus (Isolate ID ATCC 29213)), E. faecalis (Enterococcus faecalis (Isolate ID ATCC 29212)) and S. pyogenes (Streptococcus pyogenes (Isolate ID ATCC 51339)). The Gram negative bacterial strains tested include H. influenzae (Haemophilus influenzae (Isolate ID ATCC 49247)).
row,SMILES,MIC
1,"CCNC(=O)Nc1cc(Nc2ccccc2)c(C(=O)Nc2ccnnc2)cn1 [Compound 64, 6-(3-ethylureido)-4-(phenylamino)-N-(pyridazin-4-yl)nicotinamide]",≤ 1 µg/mL
2,"CCNC(=O)Nc1cc(Nc2ccc(C(=O)NC)cc2)c(C(=O)Nc2cccnc2)cn1 [Compound 126, 6-(3-ethylureido)-4-(4-(methylcarbamoyl)phenylamino)-N-(pyridin-3-yl)nicotinamide]",2 µg/mL
3,"CCNC(=O)Nc1cc(Nc2ccc(=O)n(C)c2)c(C(=O)Nc2cccnc2)cn1 [Compound 108, 6-(3-ethylureido)-4-(1-methyl-6-oxo-1,6-dihydropyridin-3-ylamino)-N-(pyridin-3-yl)nicotinamide]",16 µg/mL
4,"CCNC(=O)Nc1cc(Nc2ccc(C(=O)N(C)C)cc2)c(C(=O)Nc2cccnc2)cn1 [Compound 124, 4-(4-(dimethylcarbamoyl)phenylamino)-6-(3-ethylureido)-N-(pyridin-3-yl)nicotinamide]",4 µg/mL
5,"CCNC(=O)Nc1cc(Nc2ccc(CC(=O)O)cc2)c(C(=O)Nc2cccnc2)cn1 [Compound 114, 2-(4-(2-(3-ethylureido)-5-(pyridin-3-ylcarbamoyl)pyridin-4-ylamino)phenyl)acetic acid]",8 µg/mL
6,"CCNC(=O)Nc1cc(Nc2cccc(C(=O)O)c2)c(C(=O)Nc2cccnc2)cn1 [Compound 87, 3-(2-(3-ethylureido)-5-(pyridin-3-ylcarbamoyl)pyridin-4-ylamino)benzoic acid]",8 µg/mL

# Results, then the compound that gave them:
row,MIC,SMILES
1,≤ 1 µg/mL,"CCNC(=O)Nc1cc(Nc2ccc(C(N)=O)cc2)c(C(=O)Nc2cccnc2)cn1 [Compound 125, 4-(4-carbamoylphenylamino)-6-(3-ethylureido)-N-(pyridin-3-yl)nicotinamide]"
2,16 µg/mL,"CCNC(=O)Nc1cc(Nc2ccccc2)c(C(=O)Nc2cncc(C(=O)O)c2)cn1 [Compound 84, 5-(6-(3-ethylureido)-4-(phenylamino)nicotinamido)nicotinic acid]"
3,≤ 1 µg/mL,"CCNC(=O)Nc1cc(Nc2ccc(C(=O)O)cc2)c(C(=O)Nc2cccnc2)cn1 [Compound 16, 4-(2-(3-Ethylureido)-5-(pyridin-3-ylcarbamoyl)pyridin-4-ylamino)benzoic acid]"

# System: S. aureus (ATCC 29213)
# Experiment: Antibacterial susceptibility testing (MIC, broth microdilution or agar dilution), S. aureus
# Assay type: cell-based
# Details: Staphylococcus aureus, ATCC29213; read-out: S. aureus (ATCC 29213) minimal inhibitory concentration (MIC)
# Protocol: as §1
row,SMILES,MIC
1,CCNC(=O)Nc1cc(Nc2ccc(F)cc2)c(C(=O)Nc2cccnc2)cn1 [Compound 139],≤ 1 µg/mL
2,"CCNC(=O)Nc1cc(Nc2cccnc2)c(C(=O)Nc2ccc(NCC3(C(=O)OC)CCC3)nc2)cn1 [Compound 156, methyl 1-[({5-[({6-[(ethylcarbamoyl)amino]-4-(pyridin-3-ylamino)pyridin-3-yl}carbonyl)amino]pyridin-2-yl}amino)methyl]cyclobutane carboxylate]",16 µg/mL
3,CCNC(=O)Nc1cc(Nc2ccc(C)cc2)c(C(=O)Nc2cccnc2)cn1 [Compound 140],≤ 1 µg/mL
4,CCNC(=O)Nc1cc(Nc2cccnc2)c(C(=O)Nc2ccc(CCC(=O)OC)cc2)cn1 [Compound 147],4 µg/mL
5,CCNC(=O)Nc1cc(Nc2cncc(OC)c2)c(C(=O)Nc2cccnc2)cn1 [Compound 174],4 µg/mL
6,"CCNC(=O)Nc1cc(Nc2ccc(Cl)cc2)c(C(=O)Nc2ccc(N=[N+]=[N-])cc2)cn1 [Compound 132, N-(4-azidophenyl)-4-[(4-chlorophenyl)amino]-6-[(ethylcarbamoyl)amino]pyridine-3-carboxamide]",8 µg/mL
7,"CCNC(=O)Nc1cc(Nc2ccc(Cl)cc2)c(C(=O)Nc2ccc(-n3cc(CN)nn3)cc2)cn1 [Compound 194, N-{4-[4-(aminomethyl)-1H-1,2,3-triazol-1-yl]phenyl}-4-[(4-chlorophenyl)amino]-6-[(ethylcarbamoyl)amino]pyridine-3-carboxamide]",8 µg/mL
8,"CCNC(=O)Nc1cc(Nc2ccccc2)c(C(=O)Nc2ccc(C#CCO)cc2)cn1 [Compound 135, 6-[(Ethylcarbamoyl)amino]-N-[4-(3-hydroxyprop-1-yn-1-yl)phenyl]-4-(phenylamino)pyridine-3-carboxamide]",≤ 1 µg/mL
9,CCNC(=O)Nc1cc(Nc2cccc(F)c2)c(C(=O)Nc2cccnc2)cn1 [Compound 143],≤ 1 µg/mL
10,"CNC(=O)Nc1cc(Nc2ccccc2)c(C(=O)Nc2ccc(CCC(=O)O)cc2)cn1 [Compound 186, 3-{4-[({6-[(methylcarbamoyl)amino]-4-(phenylamino)pyridin-3-yl}carbonyl)amino]phenyl}propanoic acid]",32 µg/mL
11,"CCNC(=O)Nc1cc(Nc2cc(F)cc(F)c2)c(C(=O)Nc2ccc(Cc3nnn[nH]3)cc2)cn1 [Compound 209, 4-(3,5-difluoroanilino)-6-(ethylcarbamoylamino)-N-[4-(1H-tetrazol-5-ylmethyl)phenyl]pyridine-3-carboxamide]",≤ 1 µg/mL
12,CCNC(=O)Nc1cc(Nc2ccc(OC)nc2)c(C(=O)Nc2cccnc2)cn1 [Compound 145],4 µg/mL
13,CCNC(=O)Nc1cc(Nc2cccc(C(F)(F)F)c2)c(C(=O)Nc2cccnc2)cn1 [Compound 141],≤ 1 µg/mL
14,"CCNC(=O)Nc1cc(Nc2ccc(OC)cc2)c(C(=O)Nc2ccc(CC(C)(C)C(=O)O)cc2)cn1 [Compound 208, 3-{4-[({6-[(ethylcarbamoyl)amino]-4-[(4-methoxyphenyl)amino]pyridin-3-yl}carbonyl)amino]phenyl}-2,2-dimethylpropanoic acid]",≤ 1 µg/mL

# Continued, values first:
row,MIC,SMILES
1,16 µg/mL,CCNC(=O)Nc1cc(Nc2ccc(C)nc2)c(C(=O)Nc2cccnc2)cn1 [Compound 167]
2,8 µg/mL,CCNC(=O)Nc1cc(Nc2cncc(C)c2)c(C(=O)Nc2cccnc2)cn1 [Compound 157]
3,16 µg/mL,"CCNC(=O)Nc1cc(Nc2cccnc2)c(C(=O)Nc2ccc(CCC(=O)O)cc2)cn1 [Compound 153, 3-{4-[({6-[(ethylcarbamoyl)ami-no]-4-(pyridin-3-ylamino)pyridin-3-yl}carbonyl)amino]phenyl}pro-opanoic acid]"
4,32 µg/mL,CCNC(=O)Nc1cc(Nc2cccnc2)c(C(=O)Nc2ccc([C@@H]3C[C@H]3C(=O)O)cc2)cn1 [Compound 193]
5,8 µg/mL,"CCNC(=O)Nc1cc(Nc2ccc(Cl)cc2)c(C(=O)Nc2ccc(C#CC(C)(C)O)cc2)cn1 [Compound 185, 4-[(4-chlorophenyl)amino]-6-[(ethylcarbamoyl)amino]-N-[4-(3-hydroxy-3-methylbut-1-yn-1-yl)phenyl]pyridine-3-carboxamide]"
6,16 µg/mL,"CCNC(=O)Nc1cc(Nc2ccc(Cl)cc2)c(C(=O)Nc2cnc(NC3(C(=O)O)CCC3)nc2)cn1 [Compound 165, 1-({5-[({4-[(4-chlorophenyl)amino]-6-[(ethylcarbamoyl)amino]pyridin-3-yl}carbonyl)amino]pyrimidin-2-yl}amino) cyclobutanecarboxylic acid]"
7,≤ 1 µg/mL,"CCNC(=O)Nc1cc(Nc2cccnc2)c(C(=O)Nc2ccc(CC(C)(C)C(=O)OC)cc2)cn1 [Compound 170, methyl 3-{4-[({6-[(ethylcarbamoyl)amino]-4-(pyridin-3-ylamino)pyridin-3-yl}carbonyl)amino]phenyl}-2,2-dimethylpropanoate]"
8,≤ 1 µg/mL,CCNC(=O)Nc1cc(Nc2ccccc2F)c(C(=O)Nc2cccnc2)cn1 [Compound 144]
9,8 µg/mL,CCNC(=O)Nc1cc(Nc2ccnc(C)c2)c(C(=O)Nc2cccnc2)cn1 [Compound 162]
10,2 µg/mL,CCNC(=O)Nc1cc(Nc2ccc(C(F)(F)F)cc2)c(C(=O)Nc2cccnc2)cn1 [Compound 142]
